Assays:
[1] = Pharmacokinetics in mice (exposure, AUC); format: in vivo; details: male, CD1, plasma; mouse, 30 mg/kg, po
Experimental: This study was performed with 42 naïve male CD1 mice (18-20 g, 4-5 weeks old). Mice are obtained from Janvier, Le Genest St Isle, France.
A controlled environment was maintained in the room with optimal conditions of approximately 15 air changes per hour, a temperature of 22±2 C, a relative humidity of 30-70% and a 12 hour light/12 hour dark cycle (nightlight during the night period).
Pelleted diet for rodents (UAR A04C-10) was used and was provided ad libitum. Before p.o. dosing, the animals are deprived of food for at least 12 hours before compound administration and 4 hours after administration. All animals had free access to tap water.
[…] The i.v. bolus administration is given with a dose volume of 5 mL/kg and the oral administration is given with a dose volume of 10 mL/kg. Actual dose volumes are based on the mean of 10 body weights.
The vehicle used to formulate compounds for oral administration is methylcellulose in water (0.5% in water)
From all animals approximately 500 μL blood samples are collected by intra-cardiac puncture under gaseous anesthesia and placed into tubes containing Li-heparin as anticoagulant. Blood samples are collected at various time points (i.v.: 0.05, 0.25, 0.5, 1, 3, 5 and 8 hours after dosing; p.o.: 0.25, 0.5, 1, 3, 5, 8 and 24 hours after dosing). Each mouse is sampled once and euthanized.
Blood is kept on ice. Within 1 hour after sampling, blood is centrifuged at 5,000 rpm for 10 min at 4° C. Immediately after centrifugation, the resulting plasma samples are collected into polypropylene tubes and are kept frozen at −20° C. pending bioanalysis.
Plasma samples are assayed by LC-MS/MS. Plasma proteins are precipitated with an excess of methanol containing the internal standard and the corresponding supernatant is injected on a C18 column. Analytes are eluted out the HPLC system by increasing the percentage of the organic mobile phase. An API4000 mass spectrometer (AB Sciex™) is used for the detection and quantification.
Pharmacokinetic parameters are calculated by non-compartmental analysis using WinNonlin® software (Pharsight, version 5.2).

[2] = target: T1, EphA4 (UniProt Ref: P54764) (Homo sapiens, UniProt P54764); experiment: EphA4 assay (Reaction Biology HotSpot radioactive kinase assay); format: biochemical; details: EphA4 potency; ATP 10 μM
T1 construct: purchased Reaction Biology
T1 sequence (P54764 20-986): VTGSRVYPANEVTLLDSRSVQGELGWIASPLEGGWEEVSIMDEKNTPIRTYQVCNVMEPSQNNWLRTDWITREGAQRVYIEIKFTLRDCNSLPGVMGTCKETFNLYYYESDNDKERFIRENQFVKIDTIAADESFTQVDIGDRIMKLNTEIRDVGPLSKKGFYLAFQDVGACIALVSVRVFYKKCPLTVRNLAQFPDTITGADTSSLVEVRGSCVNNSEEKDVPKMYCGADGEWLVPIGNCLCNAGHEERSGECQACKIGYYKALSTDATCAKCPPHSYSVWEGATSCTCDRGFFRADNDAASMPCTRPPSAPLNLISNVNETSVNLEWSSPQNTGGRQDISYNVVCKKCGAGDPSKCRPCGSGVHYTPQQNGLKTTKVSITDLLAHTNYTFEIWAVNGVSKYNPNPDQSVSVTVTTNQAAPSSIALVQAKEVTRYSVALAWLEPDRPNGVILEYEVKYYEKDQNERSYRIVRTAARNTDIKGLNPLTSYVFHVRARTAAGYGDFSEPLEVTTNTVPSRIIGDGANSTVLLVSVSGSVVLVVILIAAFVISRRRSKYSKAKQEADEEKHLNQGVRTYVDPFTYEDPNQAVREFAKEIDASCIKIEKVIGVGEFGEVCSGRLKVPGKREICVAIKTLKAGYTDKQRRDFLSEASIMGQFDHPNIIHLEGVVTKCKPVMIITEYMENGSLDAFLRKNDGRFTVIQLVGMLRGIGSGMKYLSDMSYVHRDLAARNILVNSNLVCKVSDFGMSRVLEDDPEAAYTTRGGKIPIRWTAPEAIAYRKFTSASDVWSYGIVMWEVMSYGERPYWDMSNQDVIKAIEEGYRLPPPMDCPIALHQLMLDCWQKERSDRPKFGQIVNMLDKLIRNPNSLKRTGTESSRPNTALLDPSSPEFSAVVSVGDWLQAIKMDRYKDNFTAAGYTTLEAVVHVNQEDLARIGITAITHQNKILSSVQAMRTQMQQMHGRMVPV
Experimental: (§1) Inhibition of EphA4 (UniProt Ref: P54764) by a test compound is determined by a commercially available Reaction Biology proprietary nanoliter radioactive HotSpot^SM assay (Reaction Biology, One great valley parkway, Suite 2, Malvern Pa., 19355, USA). The principle of the assay consists of the measurement of incorporated ^33P into poly[Glu:Tyr] (4:1) (0.2 mg/mL) when the substrate is phosphorylated by the enzyme using [^33P]-γ-ATP and ATP (10 μM).
(§2) To determine the IC50, a serial dilution of compound is tested starting from 10 or 3 μM (highest dilution) with a 1/3 dilution.

[3] = target: T2, EphA2 (UniProt Ref: P29317) (Homo sapiens, UniProt P29317); experiment: EphA2 assay (Reaction Biology HotSpot radioactive kinase assay); format: biochemical; details: ATP 10 μM; read-out: EphA2 potency IC50
T2 construct: purchased Reaction Biology
T2 sequence (P29317 24-976): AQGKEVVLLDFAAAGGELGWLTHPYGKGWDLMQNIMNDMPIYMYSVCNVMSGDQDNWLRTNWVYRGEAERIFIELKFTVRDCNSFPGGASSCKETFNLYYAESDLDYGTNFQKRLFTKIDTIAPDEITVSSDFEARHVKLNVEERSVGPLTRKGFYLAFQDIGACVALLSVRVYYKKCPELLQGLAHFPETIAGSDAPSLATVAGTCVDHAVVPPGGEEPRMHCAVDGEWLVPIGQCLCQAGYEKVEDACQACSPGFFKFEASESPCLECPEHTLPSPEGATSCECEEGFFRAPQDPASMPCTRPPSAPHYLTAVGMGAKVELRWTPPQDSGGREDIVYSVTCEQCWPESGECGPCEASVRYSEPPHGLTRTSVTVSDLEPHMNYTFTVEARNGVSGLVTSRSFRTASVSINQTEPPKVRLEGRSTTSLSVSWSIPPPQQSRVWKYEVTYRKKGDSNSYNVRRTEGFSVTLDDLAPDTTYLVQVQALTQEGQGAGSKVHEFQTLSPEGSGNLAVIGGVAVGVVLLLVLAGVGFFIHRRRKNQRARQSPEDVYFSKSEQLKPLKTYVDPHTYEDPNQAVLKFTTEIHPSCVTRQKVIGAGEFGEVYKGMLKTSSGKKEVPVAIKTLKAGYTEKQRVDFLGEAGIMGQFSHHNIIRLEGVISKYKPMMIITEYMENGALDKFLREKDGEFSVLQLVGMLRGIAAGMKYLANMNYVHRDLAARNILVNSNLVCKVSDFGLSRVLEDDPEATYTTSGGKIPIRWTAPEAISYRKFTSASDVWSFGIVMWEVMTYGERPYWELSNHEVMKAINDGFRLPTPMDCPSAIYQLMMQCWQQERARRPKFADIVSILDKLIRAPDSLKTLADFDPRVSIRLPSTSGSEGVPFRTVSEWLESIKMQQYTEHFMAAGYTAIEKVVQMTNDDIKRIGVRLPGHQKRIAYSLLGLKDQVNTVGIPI
How it was run: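 Radiometric HotSpot assay measuring ^33P incorporation from [^33P]-γ-ATP into poly[Glu:Tyr] (4:1) (0.2 mg/mL) with 10 μM ATP. IC50 from serial 1/3 dilutions starting at 10 or 3 μM.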

[4] = target: T3, EphB4 (UniProt Ref: Q541P7) (Homo sapiens, UniProt P54760); experiment: EphB4 assay (Reaction Biology HotSpot radioactive kinase assay); format: biochemical; details: ATP 10 μM; read-out: EphB4 potency IC50
T3 construct: purchased Reaction Biology
T3 sequence (P54760 16-987): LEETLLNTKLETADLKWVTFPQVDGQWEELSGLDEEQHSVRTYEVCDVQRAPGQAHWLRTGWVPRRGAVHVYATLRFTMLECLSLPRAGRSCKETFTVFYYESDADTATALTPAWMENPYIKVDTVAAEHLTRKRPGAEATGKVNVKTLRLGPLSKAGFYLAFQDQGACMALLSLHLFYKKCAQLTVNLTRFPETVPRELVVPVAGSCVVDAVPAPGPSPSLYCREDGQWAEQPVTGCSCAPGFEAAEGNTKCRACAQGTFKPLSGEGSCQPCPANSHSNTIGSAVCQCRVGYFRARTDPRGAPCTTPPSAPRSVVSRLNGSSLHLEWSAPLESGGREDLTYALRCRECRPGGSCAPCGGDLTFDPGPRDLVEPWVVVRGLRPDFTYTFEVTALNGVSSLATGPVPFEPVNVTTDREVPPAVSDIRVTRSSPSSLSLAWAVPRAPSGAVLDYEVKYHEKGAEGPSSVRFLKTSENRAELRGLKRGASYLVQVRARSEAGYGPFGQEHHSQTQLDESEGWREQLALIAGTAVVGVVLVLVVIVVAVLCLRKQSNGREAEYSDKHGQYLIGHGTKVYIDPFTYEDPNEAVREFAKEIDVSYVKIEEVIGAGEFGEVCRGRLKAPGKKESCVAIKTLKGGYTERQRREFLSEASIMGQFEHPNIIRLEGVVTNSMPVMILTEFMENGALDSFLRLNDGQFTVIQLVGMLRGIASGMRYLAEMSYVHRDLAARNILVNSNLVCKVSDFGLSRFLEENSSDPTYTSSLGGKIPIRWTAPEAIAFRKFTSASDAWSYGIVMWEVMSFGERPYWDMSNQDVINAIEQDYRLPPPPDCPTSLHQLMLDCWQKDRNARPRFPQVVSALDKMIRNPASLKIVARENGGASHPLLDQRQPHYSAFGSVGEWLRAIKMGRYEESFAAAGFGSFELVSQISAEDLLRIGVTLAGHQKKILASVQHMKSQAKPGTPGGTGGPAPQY
Experimental: as §1, with “EphB4” for “EphA4”, “Q541P7)” for “P54764)”
as §2

AUC [1]: 39000 ng·h/mL
IC50 [2]: 50 to 100 nM
IC50 [3]: 0.01 to 25 nM
IC50 [4]: 0.01 to 25 nM
Structure (SMILES): COc1cc(OC)cc(C(=O)Nc2ccc(C)c(-c3ccc4c([C@H](C)O)n[nH]c4n3)c2)c1 [Compound 47, N-{3-[3-((S)-1-Hydroxy-ethyl)-1H-pyrazolo[3,4-b]pyridin-6-yl]-4-methyl-phenyl}-3,5-dimethoxy-benzamide]
